Source: ChEMBL document CHEMBL1131525, “Synthesis and anti-inflammatory activity of chalcone derivatives” (Bioorg Med Chem Lett, 1998)

How the values were obtained:
Mus musculus [1] = assay: In vivo inhibition of compound required to inhibit TNF-alpha levels in zymosan treated mouse air pouch at a dose of 100 nmol/pouch; format: functional
Homo sapiens [2] = organism: Homo sapiens; assay: (§1) Inhibitory concentration required for LTB4 synthesis in stimulated human neutrophils; format: functional
Homo sapiens [3] = organism: Homo sapiens; assay: (§2) […] required for elastase release in stimulated human neutrophils; format: functional; design: concentration or dose not given beside the values
Mus musculus [4] = assay: In vivo inhibition of compound required to inhibit PGE-2 levels in zymosan treated mouse air pouch at a dose of 100 nmol/pouch; format: functional
[5] = target: T1, Polyunsaturated fatty acid 5-lipoxygenase (Homo sapiens) (UniProt P09917); assay: (§3) Inhibitory concentration required against 5-lipoxygenase activity in cytosolic fractions of human neutrophils; details: concentration not given here
T1 sequence (whole entry): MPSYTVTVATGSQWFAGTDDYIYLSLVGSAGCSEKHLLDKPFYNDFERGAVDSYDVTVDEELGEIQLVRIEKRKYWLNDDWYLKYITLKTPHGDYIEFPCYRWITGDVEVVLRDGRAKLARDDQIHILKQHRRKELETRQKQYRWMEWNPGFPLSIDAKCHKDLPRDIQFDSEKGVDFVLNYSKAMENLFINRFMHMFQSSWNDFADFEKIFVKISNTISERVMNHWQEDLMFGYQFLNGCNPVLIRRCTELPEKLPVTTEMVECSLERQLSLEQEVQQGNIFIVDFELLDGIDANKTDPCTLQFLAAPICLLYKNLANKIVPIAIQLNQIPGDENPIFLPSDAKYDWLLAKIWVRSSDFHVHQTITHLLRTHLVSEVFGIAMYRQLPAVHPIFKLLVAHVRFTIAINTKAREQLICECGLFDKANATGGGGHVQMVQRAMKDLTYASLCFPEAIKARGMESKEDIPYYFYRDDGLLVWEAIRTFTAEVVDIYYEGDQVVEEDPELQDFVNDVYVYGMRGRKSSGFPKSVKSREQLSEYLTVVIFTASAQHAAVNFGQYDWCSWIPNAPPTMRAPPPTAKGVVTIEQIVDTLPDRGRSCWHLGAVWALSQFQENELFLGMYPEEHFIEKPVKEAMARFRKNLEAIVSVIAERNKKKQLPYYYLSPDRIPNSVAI

Mus musculus [6] = assay: In vivo inhibition of compound required for migration of neutrophils into the mouse pouch at the dose of 100 nmol/pouch; format: functional
Mus musculus [7] = assay: In vivo inhibition of compound required to inhibit LTB4 levels in zymosan treated mouse air pouch at a dose of 100 nmol/pouch; format: functional
[8] = target: T2, Prostaglandin G/H synthase 2 (Homo sapiens) (UniProt P35354); assay: Inhibition of COX-2 activity in intact human monocytes; format: cell-based; design: concentration or dose not given beside the values; details: concentration not given here
T2 sequence (whole entry): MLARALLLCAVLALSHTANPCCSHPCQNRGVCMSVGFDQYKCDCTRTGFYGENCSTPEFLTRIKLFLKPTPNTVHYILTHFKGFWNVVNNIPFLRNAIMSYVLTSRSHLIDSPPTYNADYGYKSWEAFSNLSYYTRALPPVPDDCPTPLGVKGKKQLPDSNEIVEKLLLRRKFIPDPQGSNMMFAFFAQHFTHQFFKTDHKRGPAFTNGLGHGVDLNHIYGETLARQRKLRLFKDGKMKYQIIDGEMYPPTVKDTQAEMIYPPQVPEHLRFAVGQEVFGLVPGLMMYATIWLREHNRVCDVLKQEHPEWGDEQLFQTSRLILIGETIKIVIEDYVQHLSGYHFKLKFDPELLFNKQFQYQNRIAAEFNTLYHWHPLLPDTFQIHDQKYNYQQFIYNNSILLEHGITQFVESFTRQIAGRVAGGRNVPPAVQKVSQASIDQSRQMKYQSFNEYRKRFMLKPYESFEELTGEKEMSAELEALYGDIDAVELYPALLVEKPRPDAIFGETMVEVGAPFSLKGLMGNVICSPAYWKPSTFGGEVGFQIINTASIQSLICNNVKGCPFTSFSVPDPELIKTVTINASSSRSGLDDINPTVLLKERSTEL

Homo sapiens [9] = organism: Homo sapiens; assay: as §1; format: functional, organism-based
Homo sapiens [10] = organism: Homo sapiens; assay: as §2; format: functional
[11] = target: T3, Polyunsaturated fatty acid 5-lipoxygenase (Homo sapiens, UniProt P09917); assay: as §3
T3 sequence (P09917 whole entry): T1 sequence (whole entry)

[12] = Inhibitory concentration required for scavenging of superoxide anion generated by hypoxanthine / xanthine oxidase system; format: functional
Homo sapiens [13] = organism: Homo sapiens; assay: Inhibitory concentration required for scavenging of superoxide anion generated by stimulated human neutrophils; format: functional
[14] = target: T3, Polyunsaturated fatty acid 5-lipoxygenase; assay: Inhibitory concentration required against 5-lipoxygenase activity in intact cells of human neutrophils; format: cell-based

SMILES	inhibition [5] [%]	inhibition [8] [%]	IC50 (Homo sapiens [9]) [µM]	IC50 (Homo sapiens [10]) [µM]	IC50 [11] [µM]	IC50 [12] [µM]	IC50 (Homo sapiens [13]) [µM]	IC50 [14] [µM]	Inhibition (Mus musculus [1]) [%]	Inhibition (Homo sapiens [2]) [%]	Inhibition (Homo sapiens [3]) [%]	Inhibition (Mus musculus [4]) [%]	Inhibition (Mus musculus [6]) [%]	Inhibition (Mus musculus [7]) [%]
O=C(/C=C/c1ccco1)c1ccc(Cl)c(Cl)c1	–	0	4.8	5.4	4.1	–	–	–	0	–	–	71	47.3	0
O=C(/C=C/c1cc2ccccc2nc1Cl)c1ccc(C(F)(F)F)cc1	32.9	35.6	–	–	–	–	–	–	24.5	36.9	0	46.5	39.7	13
O=C(/C=C/c1cc2ccccc2nc1Cl)c1cccnc1	30.2	46.6	–	–	–	–	–	–	12.1	26.4	0	69.5	53	30.7
Cc1coc(C)c1C(=O)/C=C/c1cc2ccccc2nc1Cl	–	0	–	8.4	3.5	–	–	–	34.4	53.5	–	56.8	47.1	19.5
O=C(/C=C/c1cc2ccccc2nc1Cl)c1ccc(F)cc1	–	36.3	6.2	3	3.9	–	–	–	0	–	–	58.3	36.6	18.5
CCn1c(=O)ccc2cc(COc3cc(F)cc(C4(OC)CCOCC4)c3)ccc21	–	–	–	–	0.09	–	–	0.06	–	–	–	–	–	–

Second part, led by results:

inhibition [5] [%]	inhibition [8] [%]	IC50 (Homo sapiens [9]) [µM]	IC50 (Homo sapiens [10]) [µM]	IC50 [11] [µM]	IC50 [12] [µM]	IC50 (Homo sapiens [13]) [µM]	IC50 [14] [µM]	SMILES	Inhibition (Mus musculus [1]) [%]	Inhibition (Homo sapiens [2]) [%]	Inhibition (Homo sapiens [3]) [%]	Inhibition (Mus musculus [4]) [%]	Inhibition (Mus musculus [6]) [%]	Inhibition (Mus musculus [7]) [%]
21.7	0	–	–	–	–	–	–	COc1ccc(C(=O)/C=C/c2ccc(C(F)(F)F)cc2)c(OC)c1	0	35.4	0	25.5	0	45.9
42	0	–	–	–	–	–	–	COc1cc2cc(/C=C/C(=O)c3ccccc3)c(Cl)nc2cc1OC	35.7	42.2	0	29.9	0	0
61	0	9.8	–	–	–	–	–	COc1cc2cc(/C=C/C(=O)c3ccc(C)cc3)c(Cl)nc2cc1OC	11.2	–	40.7	59.5	38.6	15.2
27.6	41.8	–	–	–	–	–	–	COc1ccc(C(=O)/C=C/c2cc3ccccc3nc2Cl)c(OC)c1	52.1	10.7	0	36.2	0	11.1
–	0	6.7	2.2	6.1	–	–	–	COc1cccc(/C=C/C(=O)c2ccc(Br)cc2)c1OC	44	–	–	62	35.7	40
42.3	30	–	–	–	–	–	–	COc1ccc(C(=O)/C=C/c2cc3ccccc3nc2Cl)cc1	0	30.2	0	23.2	20.4	20.9
37.9	0	–	–	–	0.3	0.1	–	COc1ccc(C(=O)/C=C/c2ccc(N(C)C)cc2)cc1OC	64.2	0	0	75.8	20.6	41.1
14.6	0	–	–	–	–	–	–	COc1cc(/C=C/C(=O)c2cc(OC)c(OC)c(OC)c2)cc(OC)c1OC	25.7	21.1	0	0	35	27.5
